Patent US12064479B2, “Lipid nanoparticles for delivery of nucleic acids and methods of use thereof” (Akagera Medicines, Inc., priority 2022, dated 2024)

Tests used:
Format in all cases: physicochemical
[1] = Apparent solubility of phosphatidylserine salts in ethanol (shake flask); settings: for Solubility, mM phosphatidylserine: 100% ethanol, room temperature, 24 hours, N=3
Method: Apparent solubilities of phosphatidylserine salts in ethanol were determined by shake flask technique. Sodium and ammonium salts of phosphatidylserines in the powder form were obtained from Avanti Polar Lipids (Alabama, USA). Aliquots of phosphatidylserine salt powder were placed in 12×75 borosilicate glass tubes in triplicate. Three mL of 200 proof ethanol (catalog number E-7023, MilliporeSigma, USA) were added, the tubes were closed with polyethylene snap caps, agitated using vortex mixer for 10-15 s to obtain uniform suspensions, and placed in a horizontal position on a rocking platform at room temperature (20-22° C.) overnight. The ambient temperature at the end of incubation was 20.4-20.9° C. After 24 hours incubation, the suspensions were visually checked for the presence of a solid phase, allowed to settle under gravity, and the supernatant solutions were passed through a 0.2-μm PTFE syringe membrane filters. The first 0.5 ml of the filtrate was discarded, the next 1 ml was collected, and phosphatidylserine in the filtrates was quantified by phospholipid phosphate assay as follows: 20 μL aliquots of the filtrate were taken in triplicate into glass tubes, ethanol was evaporated in a stream of argon at 70° C., and the residue was digested in a mixture of 60 μL concentrated sulfuric acid and 20 μL 30% hydrogen peroxide for 10 min at 180-190° C. The digested samples were diluted with 1 mL of deionized water, 20 μL of 10% sodium sulfite was added to destroy any residual peroxide, and the samples were incubated on a boiling water bath for 15 min to hydrolyze any condensed phosphate species. The samples were chilled down to room temperature, mixed with 0.2 mL of 2% (w/w) ammonium molybdate solution and 20 μL of 10% (w/w) ascorbic acid solution, incubated on a boiling water bath for 10 min, and chilled down in a water bath at room temperature. The phosphate concentration was determined from the optical density of the formed blue phosphomolybdic acid at 825 nm using five-point standard curve from concurrently run standards prepared from the NIST-traceable commercial phosphate standard solution diluted to cover the range of 0-2 mM phosphate (coefficient of determination R^2>0.9999). Solubility of phosphatidylserine salts was expressed in molarity units of phosphatidylserine (Table 40). The data are average f SD (N=3).

[2] = Stability of ionizable cationic lipids under accelerated oxidation (H2O2/Fe(III)Cl, UHPLC-CAD), Example 29; settings: for % of main lipid peak to To, 24 h.: individual lipids 0.5 mM; for % of main lipid peak to To, 24 h. / % of main lipid peak to To, 48 h. / % of main lipid peak to To, 72 h.: 1% H2O2/100 μM Fe(III)Cl, 37° C.; for % of main lipid peak to To, 48 h. / % of main lipid peak to To, 72 h.: individual lipids
Method: Ethanol (Sigma-Aldrich, cat #459836) stocks of 1 mM cationic lipids (KC3, KC3-OA, KC3-PA, KC3-C17 and KC3-C17(C8:1)) were prepared and stored at −20° C. Prior to the experiment, 75 μl of a lipid stock was mixed with 75 μl of ultra-pure water (Rx Biosciences, cat #P01-UPW02-1000) to make 0.5 mM of cationic lipids and 5 mM of linoleic acid respectively. A combined stock in water of 10% H2O2 (Sigma-Aldrich, cat #H1009) and 1 mM of Fe(III)Cl (Sigma-Aldrich, cat #372870) was freshly by prepared prior to the experiment. To make 1% final concentration of H2O2 and 100 μM Fe(III)Cl, 15 μl of 10% H2O2/1 mM Fe(III)Cl stock was added to 135 μl of individual lipids The liposomes and individual lipids were incubated with H2O2/Fe(III)Cl at 37° C. and then 5 μl from each sample was taken at different time points (0, 24, 48, 72 and 96 hours) and dissolved in 90 μl of MeOH for HPLC analysis. Degradation of the main lipid peak was analyzed using Thermo Scientific Vanquish Flex UHPLC occupied with Charged Aerosol Detector (CAD) and Phenomenex™ Kinetex C8 column (L=150 mm, D=2.1 mm, Particle Size=1.7 μm, 100 A).
The data are presented as a percentage of the main lipid peak measured at different time points relative to the lipid peak measured at time zero.

[3] = Oxidative stability of ICLs and liposomes under accelerated oxidation (H2O2/Fe(III)Cl, UHPLC-CAD), Example 18; settings: ICL lipid suspensions, 1% H2O2/100 μM Fe(III)Cl, 37° C.
Method: Individual lipid stocks (10 mM) were prepared in ethanol and stored at −20° C. […] Liposomal formulations based on AKG-UO-1 and O-11769 ionizable cationic lipids (Table 12) were prepared by combining lipid mixtures of desired composition in 1 mL ethanol with 3 mL 6.25 mM sodium acetate, pH 5.0 at 6 mL/min on a NanoAssemblr (Precision Nanosystems). 3.6 mL of the mixture was retained, while the initial 0.35 mL of the mixture and final 0.05 mL were discarded. Ethanol was removed by buffer exchange into PBS, pH 7.4 by concentrating each liposome preparation using an Aminon-Ultra 4 centrifugal concentrator at 500 g for 10 min at 4° C. and diluting back to the original volume with PBS. This cycle was repeated multiple times until the ethanol concentration was <1%. Finally, liposomes were sterile filtered through 0.2 μm PES (Nalgene) syringe filters and size measured by a ZetaSizer (Malvern).
Aliquots of the liposomal formulations were stored at −80° C. and thawed before the experiment. A combined stock in water of 10% H2O2 (Sigma-Aldrich, cat #H1009) and 1 mM of Fe(III)Cl (Sigma-Aldrich, cat #372870) was freshly prepared prior to the treatment. To make 1% final concentration of H2O2 and 100 μM Fe(III)Cl, 10 μl of 10% H2O2/1 mM Fe(III)Cl stock was added to 90 μl of both liposomal formulations and individual lipids The liposomes and individual lipids were incubated with H2O2/Fe(III)Cl at 37° C. and then 5 μl from each sample was taken at different time points (0, 3, 24, 48 and 72 hours) and dissolved in 90 μl of MeOH for HPLC analysis. Degradation of the main lipid peak was analyzed using Thermo Scientific Vanquish Flex UHPLC occupied with Charged Aerosol Detector (CAD) and Thermo Scientific Accucore™ C18+ UHPLC column (L=50 mm, D=2.1 mm, Particle Size=1.5 μm).
The data are presented as a percentage of the main lipid pea measure at different time points relative to the lipid peak measured at time zero.

% of main lipid peak to To, 24 h. [2] [%] | % of main lipid peak to To, 48 h. [2] [%] | % of main lipid peak to To, 72 h. [2] [%] | Compound | Solubility, mM phosphatidylserine [1] [mM] | other results
 |  |  | CCCCCCCCCCCCCCCC(=O)OC[C@H](COP(=O)(O)OC[C@H](N)C(=O)[O-])OC(=O)CCCCCCCCCCCCCCC.[Na+] [DPPS sodium] | 0.201 ± 0.004 | 
 |  |  | CCCCCCCCCCCCCCCCCC(=O)OC[C@H](COP(=O)(O)OC[C@H](N)C(=O)[O-])OC(=O)CCCCCCCCCCCCCCCCC.[Na+] [DSPS sodium] | 0.111 ± 0.009 | 
88.9 ± 0.5 | 84.6 ± 0.9 | 79.0 ± 0.1 | CCCCCCCC/C=C\CCCCCCCCC1(CCCCCCCC/C=C\CCCCCCCC)OC[C@H](CCCN(C)C)O1 [KC3-OA, 3-((S)-2,2-di((Z)-octadec-9-en-1-yl)-1,3-dioxolan-4-yl)-N,N-dimethylpropan-1-amine] |  | 
 |  |  | CCCCCCCCCCCCCCCC(=O)OC[C@H](COP(=O)(O)OC[C@H](N)C(=O)O)OC(=O)CCCCCCCCCCCCCCC.N [DPPS ammonium] | 0.865 ± 0.060 | ethanol solubility ([1]; vs DSPS ammonium and the sodium salts): several-fold higher ethanol solubility
11.2 ± 1.0 | 10.5 ± 0.5 | 0 ± 0 | CCCCC/C=C\C/C=C\CCCCCCCCC1(CCCCCCCC/C=C\C/C=C\CCCCC)OCC(CCCN(C)C)O1 (stereo not drawn) [KC3, reference compound] |  | degradation under forced oxidation with H2O2 ([2]; relative to other cationic lipids, FIG. 18): fastest degradation
66.1 ± 0.6 | 58.4 ± 1.5 | 45.9 ± 4.7 | CCCCCCCC/C=C\CCCCCCCC1(CCCCCCC/C=C\CCCCCCCC)OC[C@H](CCCN(C)C)O1 [KC3-17 (C8:1), 3-((S)-2,2-di((Z)-heptadec-8-en-1-yl)-1,3-dioxolan-4-yl)-N,N-dimethylpropan-1-amine] |  | 
 |  |  | CCCCC/C=C\CCCC/C=C\CCCCC(=O)OC[C@H](CCN(C)CCO)OC(=O)CCCC/C=C\CCCC/C=C\CCCCC [UO-6] |  | % of parent lipid peak at time 0, 24 h [3]: 58 ± 0.8%; % of parent lipid peak at time 0, 48 h [3]: 32 ± 1.3%; % of parent lipid peak at time 0, 72 h [3]: 22 ± 1.8%
62.7 ± 0.1 | 59.2 ± 0.8 | 60.2 ± 0.6 | CCCCCC/C=C\CCCCCCCCC1(CCCCCCCC/C=C\CCCCCC)OC[C@H](CCCN(C)C)O1 [KC3-PA, 3-((S)-2,2-di((Z)-hexadec-9-en-1-yl)-1,3-dioxolan-4-yl)-N,N-dimethylpropan-1-amine] |  | 
92.9 ± 0.3 | 91.8 ± 1.2 | 90.2 ± 1.2 | CCCCCCCCCCCCCCCCCC1(CCCCCCCCCCCCCCCCC)OC[C@H](CCCN(C)C)O1 [KC3-17, (S)-3-(2,2-diheptadecyl-1,3-dioxolan-4-yl)-N,N-dimethylpropan-1-amine] |  | 
 |  |  | CCCCC/C=C\CCCC/C=C\CCCCC(=O)OC[C@H](CCCN(C)C)OC(=O)CCCC/C=C\CCCC/C=C\CCCCC [UO-7] |  | % of parent lipid peak at time 0, 24 h [3]: 80 ± 1.7%; % of parent lipid peak at time 0, 48 h [3]: 71 ± 0.8%; % of parent lipid peak at time 0, 72 h [3]: 62 ± 1.0%
 |  |  | CCCCCCCCCCCCCCCCCC(=O)OC[C@H](COP(=O)(O)OC[C@H](N)C(=O)O)OC(=O)CCCCCCCCCCCCCCCCC.N [DSPS ammonium] | 0.034 ± 0.004 | 
